Laboratory results reported in patent publication US20050260737A1, “Novel lipase gene from Bacillus sphaericus 205y” (priority 2004, published 2005).

Columns and labels:
[1] = test system: recombinant lipase (Bacillus sphaericus 205y lipase expressed in E. coli); assay: Effect of organic solvents on crude recombinant lipase activity (organic solvent-tolerant test); format: biochemical; settings: for Relative activity (%) at concentration of 25%: 25% (v/v) solvent (1 ml solvent/3 ml crude enzyme), 30 min, 37° C., shaking, relative to non-solvent control
Description: The mixture is allowed to stand still for 20-30 seconds until the aqueous phase was sedimented clearly from the solution of isooctane and fatty acids. The reaction mixture contains 0.01 M calcium chloride (20 μl), olive oil emulsion (2.5 ml) and crude enzyme (1 ml). The reaction mixture was continuously agitated by using a horizontal shaker at 200 rpm at 37° C. The reaction was stopped by adding isooctane (5 ml) to dissolve free fatty acids produced by olive oil hydrolysis. Lipase activity was determined by measuring the free fatty acids from the standard curve of free fatty acids. One unit of lipase activity was defined as 1.0 μmol of fatty acid liberated per min per ml.
After induction with IPTG (1 mM), 10 ml of cells were pelleted by centrifugation at 10,000 gram and resuspended in 10 ml of Phosphate buffer (PBS). The cells were mixed thoroughly, placed on ice, and sonicated with Branson sonicater (2 min, 30% duty cycle). The broken cells were pelleted and the supernantant were used in determining the lipase activity and organic solvent tolerant. Various organic solvents were tested at the concentration of 25% (v/v) by addition of 1 ml of organic solvent to 3 ml of crude enzyme. The reaction mixture was incubated for 30 minutes at 37° C. under shaking condition (200 rpm). Remaining activity was assayed under standard condition and expressed as the percent of the control value. For control, distilled water was added instead of solvent. The organic solvents used were hexane, ρ-xylene, benzene, dimethy sulfoxide, acetonitrile and hexadecane. Each experiment was done in triplicate.
Table 4: Effect of different organic solvents on crude recombinant lipase activity. Three milliliters of cell-free supernatant of the culture was incubated with 1 ml of organic solvents at 37° C. with shaking. The remaining lipase activity relative to the non-solvent containing control was measured.

[2] = test system: lipase secreted by Bacillus sphaericus 205y; assay: Effect of organic solvents on crude lipase secreted by Bacillus sphaericus 205y; format: biochemical; settings: 25% (v/v) solvent
Description: Lipase activity is measured with olive oil emulsion as substrate (Kwon and Rhee. 1991). All reactions were performed at 37° C. for 15 minutes at shaking condition of 200 rpm unless otherwise indicated. One unit of lipase activity was defined as 1.0 μmol of fatty acid liberated per min per ml.
Bacillus sphaericus 205y is grown at 37° C. in M3 medium. The culture medium (24 h) is […] (0.25 μm pore size) as crude enzyme. Investigation of various effects of organic solvents at the concentration of 25% (v/v) (1 ml of organic solvent/3 ml of crude enzyme) on the lipase activity was done. The reaction mixture was incubated for 30 minutes at 37° C. under shaking condition (200 rpm).

[3] = cited from earlier work
isolate 205y = assay: Growth of isolate 205y in different organic solvents and concentrations; format: cell-based, Bacillus sphaericus 205y; set-up: Growth of isolate 205y: key to the marks not given beside the values; settings: for Growth of isolate 205y: growth visually determined
Description: The Bacillus sphaericus 205y culture could be obtained from Enzyme and Microbial Technology Research Department of Biochemistry and Microbiology, Faculty of Science and Environmental Studies, University Putra Malaysia. One gram of soil is resuspended in 10 ml basal mineral […] supplemented with selected hydrocarbon (0.1% v/v). The basal media contained (w/v) K2HPO4 0.5%, NH4Cl (1.0%), Na2SO4 (2%), KNO3 (2%), MgSO4.7H2O (0.2%).
Selected hydrocarbons would either be benzene, toluene or mixture of both as their sole carbon and energy source. Pure isolates were prescreened in media spiked with 1% v/v hydrocarbon. Isolates were grouped into groups of good, moderate, acceptable and negative, based on the turbidity of the media (Inoue et al., 1989). Non-inoculated controls were also used to ensure that the turbidity is due to growth.

Structure (SMILES) | Effect on recombinant lipase activity (in words) ([1]; 25% (v/v) solvent) | Lipase activity enhanced (fold of control) ([1]; 25% (v/v) solvent) [folds] | Relative activity (%) at concentration of 25% [1] [%] | Stability of lipase secreted by Bacillus sphaericus 205y in solvent (in words) [2] | Log P [3] | Growth of 205y in solvent (in words) (isolate 205y) | Growth of isolate 205y (isolate 205y; Hydrocarbon 1% (v/v)) | Growth of isolate 205y (isolate 205y; Hydrocarbon 5% (v/v)) | Growth of isolate 205y (isolate 205y; Hydrocarbon 10% (v/v)) | Growth of isolate 205y (isolate 205y; Hydrocarbon 25% (v/v)) | Growth of isolate 205y (isolate 205y; Hydrocarbon 50% (v/v)) | Growth of isolate 205y (isolate 205y; Hydrocarbon 75% (v/v))
CCCCCC [n-Hexane] | slightly activated | 1.10 | 110 | stable | 3.6 | – | – | – | – | – | – | –
C[S+](C)[O-] [Dimethyl sulfoxide] | – | – | 10 | – | −1.22 | – | – | – | – | – | – | –
Cc1ccc(C)cc1 [ρ-Xylene] | – | – | 90 | stable | – | good growth | ++ | +++ | +++ | +++ | ++ | ++
Cc1ccccc1 [Toluene] | – | – | – | – | – | – | +++ | +++ | ++ | ++ | ++ | ++
CCCCCCCCCCCCCCCC [Hexadecane] | completely inhibited | – | 0 | – | – | – | – | – | – | – | – | –
c1ccccc1 [Benzene] | – | – | – | – | – | – | ++ | +++ | +++ | ++ | ++ | ++
CC#N [Acetonitrile] | – | – | 0 | – | – | – | – | – | – | – | – | –
